Data as given in PubChem BioAssay AID330 (DTP/NCI, 2004).
Where “and” joins values, the source holds several entries; their conditions need not be identical. Equal values may be shown once. Toxic doses and inconclusive results are not listed. The calls were made as follows: active = survival T/C of 150% or more; inactive = T/C below 125% in these data.

Test system: P388 leukemia ip, CD2F1 mice, survival T/C
Assay: NCI In Vivo Anticancer Drug Screen. Data for tumor model P388 Leukemia (intraperitoneal) in CD2F1 (CDF1) mice
Settings: endpoint: median survival time, higher = longer survival
Summary of the method: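 Mice carrying the transplanted tumor received test compound or vehicle. Survival was recorded in each group, and the value is the treated-group measurement divided by that of the vehicle-treated control group.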

[1] = dose: 50.0 mg/kg/injection, schedule: Q01DX009 (ip), vehicle: saline with Tween-80
[2] = dose: 100.0 mg/kg/injection, schedule: Q01DX009 (ip), vehicle: saline with Tween-80
[3] = dose: 50.0 mg/kg/injection, schedule: Q01DX009 (ip), vehicle: Klucel (hydroxypropylcellulose) (HPC)
[4] = dose: 100.0 mg/kg/injection, schedule: Q01DX009 (ip), vehicle: Klucel (hydroxypropylcellulose) (HPC)
[5] = dose: 200.0 mg/kg/injection, schedule: Q01DX009 (ip), vehicle: Klucel (hydroxypropylcellulose) (HPC)
[6] = dose: 50.0 mg/kg/injection, schedule: Q01DX005 (ip), vehicle: Klucel (hydroxypropylcellulose) (HPC)
[7] = dose: 100.0 mg/kg/injection, schedule: Q01DX005 (ip), vehicle: Klucel (hydroxypropylcellulose) (HPC)
[8] = dose: 60.0 mg/kg/injection, schedule: Q01DX005 (ip), vehicle: saline
[9] = dose: 120.0 mg/kg/injection, schedule: Q01DX005 (ip), vehicle: saline
[10] = dose: 240.0 mg/kg/injection, schedule: Q01DX005 (ip), vehicle: saline

Measured: T/C

CSc1nc2ncnn2c(=O)[nH]1
inactive: dose: 12.5 mg/kg/injection, schedule: Q01DX009 (ip), vehicle: saline with Tween-80 100 % of control | dose: 25.0 mg/kg/injection, schedule: Q01DX009 (ip), vehicle: saline with Tween-80 99 % of control | dose: 50.0 mg/kg/injection, schedule: Q01DX005 (ip), vehicle: saline with Tween-80 98 % of control | [1] 100 % of control | dose: 100.0 mg/kg/injection, schedule: Q01DX005 (ip), vehicle: saline with Tween-80 105 % of control | [2] 100 % of control | dose: 200.0 mg/kg/injection, schedule: Q01DX005 (ip), vehicle: saline with Tween-80 103 % of control

CCOC(=O)c1nnc2cc(-c3ccccc3)nn2c1-c1ccccc1
inactive: dose: 60.0 mg/kg/injection, schedule: Q01DX005 (ip), vehicle: saline with Tween-80 101 % of control | dose: 120.0 mg/kg/injection, schedule: Q01DX005 (ip), vehicle: saline with Tween-80 95 % of control

Cc1ccc(S(=O)(=O)Nc2nnc(NS(=O)(=O)c3ccc(C)cc3)nn2)cc1
inactive: dose: 12.5 mg/kg/injection, schedule: Q01DX009 (ip), vehicle: other 96 % of control | dose: 25.0 mg/kg/injection, schedule: Q01DX009 (ip), vehicle: other 96 % of control | dose: 50.0 mg/kg/injection, schedule: Q01DX009 (ip), vehicle: other 96 % of control | dose: 100.0 mg/kg/injection, schedule: Q01DX009 (ip), vehicle: other 91 % of control | dose: 200.0 mg/kg/injection, schedule: Q01DX009 (ip), vehicle: other 94 % of control

CN1NC(c2ccccc2)=C(C#N)C(=O)CC1c1ccc(Cl)cc1 (stereo not drawn)
inactive: dose: 3.75 mg/kg/injection, schedule: Q01DX005 (ip), vehicle: saline with Tween-80 117 % of control | dose: 7.5 mg/kg/injection, schedule: Q01DX005 (ip), vehicle: saline with Tween-80 100 % of control and 101 % of control and 113 % of control

O=C(CP(=O)(O)O)OC1CCCCC1
inactive: dose: 100.0 mg/kg/injection, schedule: Q01DX001 (ip), vehicle: saline 101 % of control | dose: 200.0 mg/kg/injection, schedule: Q01DX001 (ip), vehicle: saline 101 % of control | dose: 400.0 mg/kg/injection, schedule: Q01DX001 (ip), vehicle: saline 100 % of control

COc1cccc(C2C(C#N)C(=O)NC(=O)C2C#N)c1 (stereo not drawn)
inactive: [3] 102 % of control | [4] 100 % of control | [5] 99 % of control

C#CCSc1nnnn1-c1ccc(Br)c(C)c1
inactive: [6] 101 % of control | [7] 92 % of control | dose: 200.0 mg/kg/injection, schedule: Q01DX005 (ip), vehicle: Klucel (hydroxypropylcellulose) (HPC) 101 % of control

CC(N)CC(N)CC(=O)O (stereo not drawn)
inactive: [8] 100 % of control and 99 % of control | [9] 102 % of control and 100 % of control | [10] 90 % of control and 91 % of control

COc1ccc2cc1Oc1ccc(cc1)CC1c3cc(OC)c(cc3CCN1C)Oc1c(OC)c(OC)cc3c1C(C2)N(C)CC3 (stereo not drawn)
inactive: dose: 12.5 mg/kg/injection, schedule: Q01DX005 (ip), vehicle: Klucel (hydroxypropylcellulose) (HPC) 92 % of control | dose: 25.0 mg/kg/injection, schedule: Q01DX005 (ip), vehicle: Klucel (hydroxypropylcellulose) (HPC) 95 % of control | [6] 94 % of control | dose: 100.0 mg/kg/injection, schedule: Q01DX001 (ip), vehicle: saline with Tween-80 98 % of control | [7] 86 % of control | dose: 200.0 mg/kg/injection, schedule: Q01DX001 (ip), vehicle: saline with Tween-80 86 % of control | dose: 400.0 mg/kg/injection, schedule: Q01DX001 (ip), vehicle: saline with Tween-80 86 % of control

CS(=O)(=O)c1ccccc1NN
inactive: [3] 111 % of control | [4] 105 % of control | [5] 100 % of control

CSc1cccc(N=C(N)N)c1
inactive: dose: 50.0 mg/kg/injection, schedule: Q01DX009 (ip), vehicle: saline 100 % of control | dose: 100.0 mg/kg/injection, schedule: Q01DX009 (ip), vehicle: saline 98 % of control

CCC(C)C[c-]1[c-][c-][c-][c-]1.CCC(C)C[c-]1[c-][c-][c-][c-]1.[Cl][Zr][Cl] (stereo not drawn)
inactive: [1] 90 % of control | [2] 88 % of control

CCCCCCCCCCC(=O)CCCCC
inactive: dose: 100.0 mg/kg/injection, schedule: Q04DX003 (ip), vehicle: other 104 % of control | dose: 200.0 mg/kg/injection, schedule: Q04DX003 (ip), vehicle: other 109 % of control | dose: 400.0 mg/kg/injection, schedule: Q04DX003 (ip), vehicle: other 113 % of control

Nc1nnc2nc(CC(=O)c3ccc4ccccc4c3)c(=O)[nH]n12
inactive: [8] 95 % of control | [9] 100 % of control | [10] 103 % of control
